In patent US7226949B2, “Compounds of use in the treatment of epilepsy, seizure, and electroconvulsive disorders” (University of Kentucky, priority 2002, dated 2007):
Where two headings read alike, the source gives them in different places.

Experiments:
MES-induced seizure [1] = assay: Maximal Electroshock Seizure (MES) test in mice, intraperitoneal administration; assay type: in vivo
Excerpt: (§1) The Maximal Electroshock Seizure (MES) or Maximal Seizure Pattern Test
(§2) The MES is an experimental model for generalized tonic-clonic seizures that identifies compounds that prevent seizure spread. The MES model is highly reproducible and has a consistent endpoint. An advantage of this model is that the behavioral and electrographic seizures are consistent with those observed in humans.
(§3) In the MES test, the animal receives an electrical stimulus, 0.2 seconds in duration, via corneal electrodes primed with an electrolyte solution containing an anesthetic agent. The 0.2 second stimulation is generated with 150 mA in rats and 50 mA in mice at 60 Hz. […] In rats, the compound is administered orally, while mice receive the agent via intraperitoneal injection. The test endpoint, electrogenic seizure, is manifested as hindlimb tonic extension.

MES-induced seizure [2] = assay: Maximal Electroshock Seizure (MES) test in rats, oral administration; assay type: in vivo; settings: for Percentage of rats in which the test compound prevented MES-induced seizure: 30 mg/kg oral; for ED50: read-out: ED50 required to inhibit MES-induced seizure; for Time to Peak Effect: MES test
Excerpt: as §1, §2, §3
A full dose-response curve was also generated in rats to determine the ED50 value (n=8 at each time point). […] The ED50 of 4,4′-thiodianiline was evaluated in both rats and mice.

6 Hz seizures = assay: 6 Hz kindling model; assay type: in vivo, mice
Description: The 6 Hz kindling model is another experimental seizure model that effectively detects compounds with anti-seizure activity. This screen is used to evaluate the ability of a compound to prevent the acquisition of focal seizures; in particular, the capacity of a compound to prevent the development of seizures induced by a low-frequency (6 Hz), long duration (three seconds) stimulus in electrode […] is evaluated. Several of the most promising compounds were evaluated in this screen to further characterize their anti-seizure activity.
In the 6 Hz kindling test, mice are implanted with corneal electrodes. The test compound is administered (i.p.) to the animal at 0.25, 0.5, 1, 2, or 4 hours prior seizure induction. The seizure is initiated by delivering a current (32 mA at 6 Hz for three seconds) to the animal through the corneal electrodes. The resulting psychomotor seizure is usually characterized by a minimal clonic phase followed by stereotyped, automatistic behaviors. This response is analogous to the aura of human patients with partial seizures.

rats = assay: Minimal neurotoxicity in rats, positional sense and gait and stance tests; assay type: in vivo; settings: for toxicity: 250 mg/kg
Excerpt: If the rat experiences neurological toxicity, it will not be able to quickly lift its leg quickly back to a normal position.
In the gait and stance test, neurotoxicity is indicated by a circular or zigzag gait after administration of the test compound. In addition, ataxia, abnormal spread of the legs, abnormal posture, tremor hyperactivity, lack of exploratory behavior, somnolence, stupor, or catalepsy can indicate neurotoxicity.

mice = assay: Minimal neurotoxicity in mice, rotorod test; settings: for toxicity: 100 mg/kg
Description: In mice, the test compound is administered at doses of 30, and 100 mg/kg prior to evaluation in the toxicity screens. The mice are tested at 0.5 hours and 4 hours after intraperitoneal administration of the test compound.
Toxicity in mice weighing between 18 and 25.5 g is assessed using the standardized rotorod test [9]. For each compound tested, a minimum of 18 animals are evaluated for neurotoxicity. Control mice can maintain their equilibrium for an extended period of time when they are placed on a 6-rpm rotation rod. Neurologically impaired animals cannot maintain equilibrium for one minute in each of three successive trials.

[3] = system: focal seizures in hippocampal kindled rats; assay: Hippocampal kindling model; assay type: in vivo, Sprague-Dawley rats; settings: hippocampal kindling model; not as effective as 4,4′-thiodianiline
Excerpt: Hippocampal Kindling Model
The hippocampal kindling model is an experimental seizure model used to simulate focal seizures. This model evaluates the capacity of a compound to affect both the expression and acquisition of focal seizures. In addition, kindled seizures provide a methodology for studying complex brain networks that may contribute to the spread and generalizations of seizures from a focus. The hippocampal kindling model has the advantage of being one of the only kindling models that can evaluate the temporal effects of an agent in a single animal. For this assessment, bipolar electrodes are surgically implanted in the ventral hippocampus of adult male Sprague-Dawley rats (275-300 g) under ketamine-xylazine anesthesia. Following a one-week recovery period, stage five behavioral seizures are induced by stimulating the rat 12 times per day with 50 Hz, 10 s train of 1 ms biphasic 200 μA pulses delivered every 30 min for six hours on alternating days. After five stimulus days, the animal has had 60 stimulations. A drug free control period with supramaximal stimulations is used to verify the stability of a stage five generalized seizure before the anticonvulsant activity of a drug is measured.
This screen is used to measure the capacity of the drug to prevent the expression of focal seizures. […] The animal is exposed to an initial stimulation of 20 μA; the stimulation is increased in 10 μA increments every one-two minutes until an afterdischarge is recorded. After the stability of the stage five seizure is established, the drug candidate is administered to the rats via intraperitoneal injection 15 minutes after the last control stimulation. Starting with the first dose, the anticonvulsant activity of the test agent is measured every thirty minutes for four hours. Following each stimulation, Racine seizure scores and afterdischarge durations are compared to control values to quantify the anti-convulsant activity of the agent. The Racine seizure scores vary from stage 1 to 5. The stages are characterized according to the following criteria: Stage 1—mouth and facial clonus, Stage 2—stage 1 and head nodding, Stage 3—stage 2 and forelimb clonus, Stage 4—stage 3 and rearing, Stage 5—stage 4 and repeated rearing and falling. Since a single animal is used, each rat serves as its own control.
4,4′-Thiodianiline was used in the rat hippocampal kindled rats to screen to measure its anticonvulsant potential. Doses of 12.5, 25, 50 and 100 mg/kg were evaluated at a minimum of seven time points (n=7 for each dose and each time point). […] After oral administration of the test compound stimulation, the Racine seizure scores and afterdischarge durations were measured and are shown below. The Racine seizure scores dropped from between a stage 4 and stage 5 seizure for control measurements to between a stage 1 and stage 2 seizure after treatment with 4,4′-thiodianiline.

[4] = 30 mg/kg i.p., 0.5 h after administration
[5] = 30 mg/kg i.p., 4.0 h after administration
[6] = 100 mg/kg i.p., 0.5 h after administration
[7] = 100 mg/kg i.p., 4.0 h after administration
[8] = 300 mg/kg i.p., 0.5 h after administration
[9] = 300 mg/kg i.p., 4.0 h after administration
[10] = 30 mg/kg i.p., 0.25 h after administration
[11] = 30 mg/kg i.p., 1.0 h after administration
[12] = 100 mg/kg i.p., 0.25 h after administration
[13] = 100 mg/kg i.p., 1.0 h after administration
[14] = 100 mg/kg i.p., 2.0 h after administration
[15] = rat, oral administration, at the time of peak effect, n=8

In the case of Nc1ccc(Cc2ccc(N)cc2)cc1 [4,4′-methylenedianiline], the “Percentage of mice in which the test compound prevented MES-induced seizure” value (MES-induced seizure [1]; [4]) is reported as 0%, the “Percentage of mice in which the test compound prevented MES-induced seizure” value (MES-induced seizure [1]; [5]) is reported as 0% and the “Percentage of mice in which the test compound prevented MES-induced seizure” value (MES-induced seizure [1]; [6]) is reported as 100%. The “Percentage of mice in which the test compound prevented MES-induced seizure” value (MES-induced seizure [1]; [7]) was 0%, the “Percentage of mice in which the test compound prevented MES-induced seizure” value (MES-induced seizure [1]; [8]) was 100% and the “Percentage of mice in which the test compound prevented MES-induced seizure” value (MES-induced seizure [1]; [9]) was 100%. For the same compound, the “Percentage of rats in which the test compound prevented MES-induced seizure” value (“Percentage of rats” below) (MES-induced seizure [2]; 0.25 h after administration) was 100%, the “Percentage of rats” value (MES-induced seizure [2]; 0.5 h after administration) was 75% and the “Percentage of rats” value (MES-induced seizure [2]; 1.0 h after administration) was 92%. The “Percentage of rats” value (MES-induced seizure [2]; 2.0 h after administration) was 100%, the “Percentage of rats” value (MES-induced seizure [2]; 4.0 h after administration) was 50% and the ED50 (MES-induced seizure [2]; Rattus norvegicus, po) was 10.6 ± 5.88 mg/kg. The “Time to Peak Effect” value (MES-induced seizure [2]; rat, oral administration) was 1 h, the “Percentage of mice in which the test compound prevented seizure in the 6 Hz test” value (“Percentage of mice … in the 6 Hz test” below) (6 Hz seizures; [10]) was 0% and the “Percentage of mice … in the 6 Hz test” value (6 Hz seizures; [4]) was 0%. For the same compound, the “Percentage of mice … in the 6 Hz test” value (6 Hz seizures; [11]) was 0%, the “Percentage of mice … in the 6 Hz test” value (6 Hz seizures; [12]) was 100% and the “Percentage of mice … in the 6 Hz test” value (6 Hz seizures; [6]) was 100%. For the same compound, the “Percentage of mice … in the 6 Hz test” value (6 Hz seizures; [13]) was 100%, the “Percentage of mice … in the 6 Hz test” value (6 Hz seizures; [14]) was 0% and the “Percentage of mice … in the 6 Hz test” value (6 Hz seizures; [7]) was 0%. For the same compound, the toxicity (rats) was “no significant toxicity” and the toxicity (mice) was “no significant toxicity”.

With Nc1ccc(NC(=O)c2ccc(N)cc2)cc1 [4,4′-Diaminobenzanalide] the “expression of fully kindled seizures” value [3] was “had the capacity to block the expression of fully kindled seizures”.

With Nc1ccc(C(=O)c2ccc(N)cc2)cc1 [4,4′-diaminobenzophenone] the “Percentage of mice in which the test compound prevented MES-induced seizure” value (MES-induced seizure [1]; [4]) was 0%, the “Percentage of mice in which the test compound prevented MES-induced seizure” value (MES-induced seizure [1]; [5]) was 0% and the “Percentage of mice in which the test compound prevented MES-induced seizure” value (MES-induced seizure [1]; [6]) was 100%. The “Percentage of mice in which the test compound prevented MES-induced seizure” value (MES-induced seizure [1]; [7]) was 100%, the “Percentage of mice in which the test compound prevented MES-induced seizure” value (MES-induced seizure [1]; [8]) was 100% and the “Percentage of mice in which the test compound prevented MES-induced seizure” value (MES-induced seizure [1]; [9]) was 100%. The “Percentage of rats” value (MES-induced seizure [2]; 0.25 h after administration) was 50%, the “Percentage of rats” value (MES-induced seizure [2]; 0.5 h after administration) was 100% and the “Percentage of rats” value (MES-induced seizure [2]; 1.0 h after administration) was 75%. The “Percentage of rats” value (MES-induced seizure [2]; 2.0 h after administration) was 100%, the “Percentage of rats” value (MES-induced seizure [2]; 4.0 h after administration) was 75% and the “Time to Peak Effect” value (MES-induced seizure [2]; rat, oral administration) was 1 h. The ED50 (MES-induced seizure [2]; [15]) was 7.15 mg/kg, the “Percentage of mice … in the 6 Hz test” value (6 Hz seizures; [10]) was 0% and the “Percentage of mice … in the 6 Hz test” value (6 Hz seizures; [4]) was 0%. For the same compound, the “Percentage of mice … in the 6 Hz test” value (6 Hz seizures; [11]) was 0%, the “Percentage of mice … in the 6 Hz test” value (6 Hz seizures; [12]) was 100% and the “Percentage of mice … in the 6 Hz test” value (6 Hz seizures; [6]) was 100%. For the same compound, the “Percentage of mice … in the 6 Hz test” value (6 Hz seizures; [13]) was 100%, the “Percentage of mice … in the 6 Hz test” value (6 Hz seizures; [14]) was 0% and the “Percentage of mice … in the 6 Hz test” value (6 Hz seizures; [7]) was 0%. For the same compound, the acute neurotoxic effects (rats; 0.25 to 24 hours after oral administration, doses as high as 500 mg/kg) was “None of the rats tested at any timepoints” and the neurotoxicity (mice; doses below 100 mg/kg) was “showed no neurotoxicity”.

For Nc1ccc(Nc2cccc(N)c2)cc1 [(3-aminophenyl)-(4-aminophenyl) amine], the “Percentage of mice in which the test compound prevented MES-induced seizure” value (MES-induced seizure [1]; [4]) was 0%, the “Percentage of mice in which the test compound prevented MES-induced seizure” value (MES-induced seizure [1]; [5]) was 0% and the “Percentage of mice in which the test compound prevented MES-induced seizure” value (MES-induced seizure [1]; [6]) was 100%. The “Percentage of mice in which the test compound prevented MES-induced seizure” value (MES-induced seizure [1]; [7]) was 100%, the “Percentage of mice in which the test compound prevented MES-induced seizure” value (MES-induced seizure [1]; [8]) was 100% and the “Percentage of mice in which the test compound prevented MES-induced seizure” value (MES-induced seizure [1]; [9]) was 100%. For the same compound, the “Percentage of rats” value (MES-induced seizure [2]; 0.25 h after administration) was 0%, the “Percentage of rats” value (MES-induced seizure [2]; 0.5 h after administration) was 50% and the “Percentage of rats” value (MES-induced seizure [2]; 1.0 h after administration) was 75%. The “Percentage of rats” value (MES-induced seizure [2]; 2.0 h after administration) was 50%, the “Percentage of rats” value (MES-induced seizure [2]; 4.0 h after administration) was 50% and the “Time to Peak Effect” value (MES-induced seizure [2]; rat, oral administration) was 2 h. For the same compound, the ED50 (MES-induced seizure [2]; [15]) was 31.7 ± 24.4 mg/kg, the toxicity (rats) was “no significant toxicity” and the toxicity (mice) was “no significant toxicity”.
